Measured values taken from US20240197888A1, “SOS1 PROTEIN DEGRADERS, PHARMACEUTICAL COMPOSITIONS THEREOF, AND THEIR THERAPEUTIC APPLICATIONS” (BioTheryX, Inc., priority 2021, published 2024).

Experiments:
Assay type in all cases: cell-based
Lovo (G13D) cells = assay: Cell viability assay (CELLTITER-GLO), Lovo cells; conditions: Homo sapiens, 72 h, Inhibition of cancerous cells, 3 days incubation, luminescence
Description: (§1) AsPC-1, H358, and SW48 cells were cultured in RPMI 1640 media supplemented with 10% fetal bovine serum, streptomycin, and penicillin. Lovo and SW480 cells were cultured in DMEM media supplemented with 10% fetal bovine serum, streptomycin, and penicillin. The cell lines were plated in their respective medium supplemented with 2.5% fetal bovine serum, streptomycin, and penicillin. All cell lines were plated in white walled 96-well plates at 2,000 cells/well or 384-well plates at 500 cells/well, except Lovo, which were plated at 4,000 or 1,000 cells/well, respectively. The cells were incubated in DMSO (control) or a compound for 3 days at 37° C. under 5% CO2. A CELLTITER-GLO® reagent ([…] was then added to each well. After a 10 min incubation with shaking, luminescence was measured using an ENVISION® multimode plate reader. IC50 values are summarized in Table 1.

SW480 (G12V) cells = assay: Cell viability assay (CELLTITER-GLO), SW480 cells; conditions: Homo sapiens, 72 h, Inhibition of cancerous cells, 3 days incubation, luminescence
Description: as §1

SW48 (wt) cells = assay: Cell viability assay (CELLTITER-GLO), SW48 cells; conditions: Homo sapiens, 72 h, Inhibition of cancerous cells, 3 days incubation, luminescence
Description: as §1

H358 (G12C) cells = assay: Cell viability assay (CELLTITER-GLO), H358 cells; conditions: Homo sapiens, NCI-H358, 72 h, Inhibition of cancerous cells, 3 days incubation, luminescence
Description: as §1

SMILES | IC50 (Lovo (G13D) cells) [µM] | IC50 (SW480 (G12V) cells) [µM] | IC50 (SW48 (wt) cells) [µM] | IC50 (H358 (G12C) cells) [µM]
CNCc1ccccc1-c1csc([C@H](C)Nc2nc(C)nc3cc(OCCOCCNC(=O)CC45CC6CC(CC(C6)C4)C5)c(OC)cc23)c1 [Compound A6, 2-((3r,5r,7r)-adamantan-1-yl)-N-(2-(2-((6-methoxy-2-methyl-4-(((S)-1-(4-(2-((methylamino)methyl)phenyl)thiophen-2-yl)ethyl)amino)quinazolin-7-yl)oxy)ethoxy)-ethyl)acetamide] | 0.48 | 0.76 | 1 | 0.97
CNCc1ccccc1-c1csc([C@H](C)Nc2nc(C)nc3cc(OCCCCCOC(=O)CC45CC6CC(CC(C6)C4)C5)c(OC)cc23)c1 [Compound A46, 5-((6-Methoxy-2-methyl-4-(((S)-1-(4-(2-((methylamino)methyl)phenyl)thiophen-2-yl)ethyl)amino)quinazolin-7-yl)oxy)pentyl 2-((3r,5r,7r)-adamantan-1-yl)acetate] | 1.5 | 1.2 | 1.1 | 1.5
CNCc1ccccc1-c1csc([C@H](C)Nc2nc(C)nc3cc(OCCCCCCCN4CCCCC4)c(OC)cc23)c1 [Compound A3, (S)-6-methoxy-2-methyl-N-(1-(4-(2-((methylamino)methyl)phenyl)thiophen-2-yl)ethyl)-7-((7-(piperidin-1-yl)heptyl)oxy)quinazolin-4-amine] | 0.34 | 0.61 | 0.5 | 0.61
COc1cc2c(N[C@H](C)c3cccc(Br)c3)nc(C)nc2cc1OCCCCCCCN1C(C)(C)CCCC1(C)C [Compound A74, (R)—N-(1-(3-Bromophenyl)ethyl)-6-methoxy-2-methyl-7-((7-(2,2,6,6-tetramethyl-piperidin-1-yl)heptyl)oxy)quinazolin-4-amine] | 0.34 | 0.42 | 0.56 | 0.65
COc1cc2c(N[C@H](C)c3cccc(Br)c3)nc(C)nc2cc1OCCCCCCCc1ccncc1 [Compound A43, (R)—N-(1-(3-Bromophenyl)ethyl)-6-methoxy-2-methyl-7-((7-(pyridin-4-yl)heptyl)-oxy)quinazolin-4-amine] | 2.2 | 1.9 | 3.6 | 5.4
CNCc1ccccc1-c1csc([C@@H](C)Nc2nc(C)nc3cc(OCCCCCOC(=O)CC45CC6CC(CC(C6)C4)C5)c(OC)cc23)c1 [Compound A45, 5-((6-Methoxy-2-methyl-4-(((R)-1-(4-(2-((methylamino)methyl)phenyl)thiophen-2-yl)ethyl)amino)quinazolin-7-yl)oxy)pentyl 2-((3r,5r,7r)-adamantan-1-yl)acetate] | 0.45 | 0.57 | 1 | 0.85
COc1cc2c(N[C@H](C)c3cccc(Br)c3)nc(C)nc2cc1OCCCCCCCN1CCCC(F)(F)C1 [Compound A44, (R)—N-(1-(3-Bromophenyl)ethyl)-7-((7-(3,3-difluoropiperidin-1-yl)heptyl)oxy)-6-methoxy-2-methylquinazolin-4-amine] | 0.55 | 1.2 | 2 | 1.9
COc1cc2c(N[C@H](C)c3cccc(Br)c3)nc(C)nc2cc1OCCCCCCCN1CCCCC1=O [Compound A25, (R)-1-(7-((4-((1-(3-Bromophenyl)ethyl)amino)-6-methoxy-2-methylquinazolin-7-yl)oxy)heptyl)piperidin-2-one] | 0.5 | 0.78 | 1.8 | 1.4
CNCc1ccccc1-c1csc([C@@H](C)Nc2nc(C)nc3cc(OCCOCCOC(=O)CC45CC6CC(CC(C6)C4)C5)c(OC)cc23)c1 [Compound A47, 2-(2-((6-Methoxy-2-methyl-4-(((R)-1-(4-(2-((methylamino)methyl)phenyl)-thiophen-2-yl)ethyl)amino)quinazolin-7-yl)oxy)ethoxy)ethyl 2-((3r,5r,7r)-adamantan-1-yl)acetate] | 0.43 | 0.58 | 0.64 | 0.76
CNCc1ccccc1-c1csc([C@@H](C)Nc2nc(C)nc3cc(OCCNC(=O)CC45CC6CC(CC(C6)C4)C5)c(OC)cc23)c1 [Compound A51, 2-((3r,5r,7r)-Adamantan-1-yl)-N-(2-((6-methoxy-2-methyl-4-(((R)-1-(4-(2-((methylamino)methyl)phenyl)thiophen-2-yl)ethyl)amino)quinazolin-7-yl)oxy)ethyl)acetamide] | 0.47 | 0.62 | 0.75 | 1.1

Second part, the molecule after the results:

IC50 (Lovo (G13D) cells) [µM] | IC50 (SW480 (G12V) cells) [µM] | IC50 (SW48 (wt) cells) [µM] | IC50 (H358 (G12C) cells) [µM] | SMILES
0.18 | 0.51 | 0.33 | 0.47 | CNCc1ccccc1-c1csc([C@@H](C)Nc2nc(C)nc3cc(OCCCCCCCN4CCCCC4)c(OC)cc23)c1 [Compound A2, (R)-6-methoxy-2-methyl-N-(1-(4-(2-((methylamino)methyl)phenyl)thiophen-2-yl)ethyl)-7-((7-(piperidin-1-yl)heptyl)oxy)quinazolin-4-amine]
0.54 | 0.58 | 0.6 | 1.2 | COc1cc2c(N[C@H](C)c3cccc(Br)c3)nc(C)nc2cc1OCCCCCCCN1CCN(C(C)=O)CC1 [Compound A26, (R)-1-(4-(7-((4-((1-(3-Bromophenyl)ethyl)amino)-6-methoxy-2-methyl-quinazolin-7-yl)oxy)heptyl)piperazin-1-yl)ethan-1-one]
0.45 | 0.55 | 0.9 | 0.91 | CNCc1ccccc1-c1csc([C@@H](C)Nc2nc(C)nc3cc(OCCOCCNC(=O)CC45CC6CC(CC(C6)C4)C5)c(OC)cc23)c1 [Compound A5, 2-((3r,5r,7r)-adamantan-1-yl)-N-(2-(2-((6-methoxy-2-methyl-4-(((R)-1-(4-(2-((methylamino)methyl)phenyl)thiophen-2-yl)ethyl)amino)quinazolin-7-yl)oxy)ethoxy)ethyl)-acetamide]
0.25 | 0.59 | 0.66 | 0.73 | COc1cc2c(N[C@H](C)c3cccc(Br)c3)nc(C)nc2cc1OCCCCCCCN1CCOCC1 [Compound A75, (R)—N-(1-(3-Bromophenyl)ethyl)-6-methoxy-2-methyl-7-((7-morpholinoheptyl)-oxy)quinazolin-4-amine]
0.43 | 0.61 | 0.89 | 1.2 | CNCc1ccccc1-c1csc([C@H](C)Nc2nc(C)nc3cc(OCCNC(=O)CC45CC6CC(CC(C6)C4)C5)c(OC)cc23)c1 [Compound A52, 2-((3r,5r,7r)-Adamantan-1-yl)-N-(2-((6-methoxy-2-methyl-4-(((S)-1-(4-(2-((methylamino)methyl)phenyl)thiophen-2-yl)ethyl)amino)quinazolin-7-yl)oxy)ethyl)acetamide]
0.46 | 0.71 | 0.59 | 1.2 | COc1cc2c(N[C@H](C)c3cccc(Br)c3)nc(C)nc2cc1OCCCCCCCN1CCC(C(F)(F)F)CC1 [Compound A24, (R)—N-(1-(3-Bromophenyl)ethyl)-6-methoxy-2-methyl-7-((7-(4-(trifluoromethyl)-piperidin-1-yl)heptyl)oxy)quinazolin-4-amine]
